± gives the expanded uncertainty stated by the source.
Assay: mn = molality of the nth substance listed, in mol/kg
Details: 101 kPa, Liquid; for viscosity: Capillary tube (Ostwald / Ubbelohde) method

O=C1CCC[NH+]1C1CCCCC1.O=S(=O)([O-])c1ccccc1 [1-cyclohexyl-2-oxopyrrolidin-1-ium benzenesulfonate] + O
Details | mass density, 298.15 K [kg/m3] | mass density, 303.15 K [kg/m3] | mass density, 308.15 K [kg/m3] | viscosity, 298.15 K [mPa·s] | viscosity, 303.15 K [mPa·s] | viscosity, 308.15 K [mPa·s]
m1 = 0.0509 | 999.45 ± 0.76 | 997.89 ± 0.78 | 995.97 ± 0.79 | 0.9377 ± 0.011 | 0.8235 ± 0.0096 | 0.7406 ± 0.0086
m1 = 0.1005 | 1002.85 ± 0.79 | 1001.35 ± 0.77 | 999.03 ± 0.77 | 0.9703 ± 0.011 | 0.8645 ± 0.01 | 0.7786 ± 0.0091
m1 = 0.1478 | 1005.4 ± 0.81 | 1003.96 ± 0.8 | 1001.85 ± 0.78 | 1.01 ± 0.012 | 0.8892 ± 0.01 | 0.8095 ± 0.0094
m1 = 0.1987 | 1007.93 ± 0.84 | 1006.42 ± 0.82 | 1004.55 ± 0.81 | 1.057 ± 0.012 | 0.9268 ± 0.011 | 0.8407 ± 0.0098
m1 = 0.2532 | 1010.59 ± 0.87 | 1009.02 ± 0.85 | 1007.24 ± 0.83 | 1.11 ± 0.013 | 0.9692 ± 0.011 | 0.8758 ± 0.01
m1 = 0.3009 | 1013.05 ± 0.89 | 1011.32 ± 0.88 | 1009.49 ± 0.86 | 1.153 ± 0.013 | 1.009 ± 0.012 | 0.9088 ± 0.011
m1 = 0.3497 | 1015.5 ± 0.92 | 1013.84 ± 0.9 | 1011.74 ± 0.88 | 1.199 ± 0.014 | 1.051 ± 0.012 | 0.9404 ± 0.011
m1 = 0.4013 | 1018.26 ± 0.95 | 1016.55 ± 0.93 | 1014.3 ± 0.91 | 1.247 ± 0.014 | 1.097 ± 0.013 | 0.9772 ± 0.011
m1 = 0.4514 | 1021.07 ± 0.98 | 1019.24 ± 0.96 | 1016.92 ± 0.94 | 1.292 ± 0.015 | 1.141 ± 0.013 | 1.013 ± 0.012
m1 = 0.5008 | 1023.74 ± 1 | 1022.03 ± 0.99 | 1019.52 ± 0.97 | 1.337 ± 0.015 | 1.181 ± 0.014 | 1.046 ± 0.012
m1 = 0.5492 | 1026.44 ± 1 | 1024.55 ± 1 | 1022.06 ± 1 | 1.383 ± 0.016 | 1.224 ± 0.014 | 1.083 ± 0.013
m1 = 0.6024 | 1029.39 ± 1.1 | 1027.42 ± 1.1 | 1024.91 ± 1 | 1.432 ± 0.017 | 1.268 ± 0.015 | 1.123 ± 0.013
m1 = 0.6506 | 1031.86 ± 1.1 | 1029.91 ± 1.1 | 1027.47 ± 1.1 | 1.479 ± 0.017 | 1.309 ± 0.015 | 1.163 ± 0.014
m1 = 0.7603 | 1037.45 ± 1.2 | 1035.1 ± 1.1 | 1032.83 ± 1.1 | 1.588 ± 0.018 | 1.405 ± 0.016 | 1.249 ± 0.015
m1 = 0.7986 | 1039.18 ± 1.2 | 1036.89 ± 1.1 | 1034.62 ± 1.1 | 1.631 ± 0.019 | 1.442 ± 0.017 | 1.283 ± 0.015
m1 = 0.9023 | 1043.64 ± 1.2 | 1041.09 ± 1.2 | 1038.92 ± 1.2 | 1.736 ± 0.02 | 1.535 ± 0.018 | 1.373 ± 0.016
m1 = 0.9974 | 1047.35 ± 1.3 | 1044.52 ± 1.2 | 1042.51 ± 1.2 | 1.838 ± 0.022 | 1.623 ± 0.019 | 1.448 ± 0.017
m1 = 1.199 | 1054.63 ± 1.4 | 1052.23 ± 1.3 | 1049.68 ± 1.3 | 2.08 ± 0.025 | 1.81 ± 0.021 | 1.617 ± 0.019

Cc1ccc(S(=O)(=O)O)cc1.O=C1CCCN1C1CCCCC1 [1-cyclohexyl-2-pyrrolidinone 4-methylbenzenesulfonate] + O
Details | mass density, 298.15 K [kg/m3] | mass density, 303.15 K [kg/m3] | mass density, 308.15 K [kg/m3] | viscosity, 298.15 K [mPa·s] | viscosity, 303.15 K [mPa·s] | viscosity, 308.15 K [mPa·s]
m1 = 0.0502 | 1000.25 ± 0.76 | 998.76 ± 0.77 | 997.02 ± 0.78 | 0.9563 ± 0.011 | 0.8427 ± 0.0098 | 0.7524 ± 0.0088
m1 = 0.1025 | 1003.22 ± 0.79 | 1001.6 ± 0.77 | 999.85 ± 0.76 | 0.9991 ± 0.011 | 0.8853 ± 0.01 | 0.7957 ± 0.0093
m1 = 0.1513 | 1005.86 ± 0.82 | 1004.3 ± 0.8 | 1002.49 ± 0.78 | 1.035 ± 0.012 | 0.9171 ± 0.011 | 0.8304 ± 0.0097
m1 = 0.1991 | 1008.58 ± 0.84 | 1006.95 ± 0.83 | 1005.1 ± 0.81 | 1.082 ± 0.013 | 0.9514 ± 0.011 | 0.8636 ± 0.01
m1 = 0.2492 | 1011.41 ± 0.87 | 1009.76 ± 0.86 | 1007.84 ± 0.84 | 1.134 ± 0.013 | 0.9897 ± 0.011 | 0.8957 ± 0.01
m1 = 0.3015 | 1014.32 ± 0.91 | 1012.57 ± 0.89 | 1010.6 ± 0.87 | 1.186 ± 0.014 | 1.036 ± 0.012 | 0.9333 ± 0.011
m1 = 0.3524 | 1017.03 ± 0.93 | 1015.23 ± 0.92 | 1013.12 ± 0.9 | 1.24 ± 0.014 | 1.08 ± 0.013 | 0.9639 ± 0.011
m1 = 0.4007 | 1019.46 ± 0.96 | 1017.48 ± 0.94 | 1015.41 ± 0.92 | 1.289 ± 0.015 | 1.123 ± 0.013 | 0.9982 ± 0.012
m1 = 0.4491 | 1021.74 ± 0.99 | 1019.79 ± 0.97 | 1017.58 ± 0.95 | 1.337 ± 0.015 | 1.165 ± 0.014 | 1.029 ± 0.012
m1 = 0.4976 | 1023.93 ± 1 | 1021.92 ± 0.99 | 1019.7 ± 0.97 | 1.383 ± 0.016 | 1.207 ± 0.014 | 1.066 ± 0.013
m1 = 0.5503 | 1026.3 ± 1 | 1024.26 ± 1 | 1021.89 ± 0.99 | 1.435 ± 0.017 | 1.254 ± 0.015 | 1.104 ± 0.013
m1 = 0.6019 | 1028.47 ± 1.1 | 1026.37 ± 1 | 1023.96 ± 1 | 1.485 ± 0.017 | 1.3 ± 0.015 | 1.145 ± 0.013
m1 = 0.6492 | 1030.43 ± 1.1 | 1028.29 ± 1.1 | 1025.85 ± 1 | 1.537 ± 0.018 | 1.344 ± 0.016 | 1.184 ± 0.014
m1 = 0.7521 | 1034.7 ± 1.1 | 1032.51 ± 1.1 | 1030.01 ± 1.1 | 1.648 ± 0.019 | 1.44 ± 0.017 | 1.272 ± 0.015
m1 = 0.8074 | 1037 ± 1.2 | 1034.74 ± 1.1 | 1032.32 ± 1.1 | 1.715 ± 0.02 | 1.497 ± 0.017 | 1.323 ± 0.015
m1 = 0.9012 | 1040.82 ± 1.2 | 1038.55 ± 1.2 | 1036.16 ± 1.2 | 1.829 ± 0.021 | 1.596 ± 0.019 | 1.412 ± 0.017
m1 = 1.002 | 1044.83 ± 1.2 | 1042.52 ± 1.2 | 1040.19 ± 1.2 | 1.966 ± 0.023 | 1.7 ± 0.02 | 1.506 ± 0.018
m1 = 1.199 | 1051.36 ± 1.3 | 1048.95 ± 1.3 | 1046.4 ± 1.3 | 2.233 ± 0.026 | 1.907 ± 0.023 | 1.688 ± 0.02

CN1CCCC1=O.O=S(=O)(O)c1ccccc1 [1-methyl-2-pyrrolidinone benzenesulfonate] + O
Details | mass density, 298.15 K [kg/m3] | mass density, 303.15 K [kg/m3] | mass density, 308.15 K [kg/m3] | viscosity, 298.15 K [mPa·s] | viscosity, 303.15 K [mPa·s] | viscosity, 308.15 K [mPa·s]
m1 = 0.0521 | 1000.25 ± 0.76 | 998.54 ± 0.77 | 996.69 ± 0.79 | 0.9266 ± 0.011 | 0.8213 ± 0.0095 | 0.7506 ± 0.0087
m1 = 0.1042 | 1003.16 ± 0.79 | 1001.68 ± 0.77 | 999.93 ± 0.76 | 0.9506 ± 0.011 | 0.845 ± 0.0098 | 0.7706 ± 0.009
m1 = 0.1369 | 1004.9 ± 0.8 | 1003.46 ± 0.79 | 1001.57 ± 0.77 | 0.9685 ± 0.011 | 0.8602 ± 0.01 | 0.7809 ± 0.0091
m1 = 0.2057 | 1008.79 ± 0.84 | 1007.07 ± 0.83 | 1004.83 ± 0.81 | 1.003 ± 0.012 | 0.8912 ± 0.01 | 0.8063 ± 0.0094
m1 = 0.2512 | 1011.09 ± 0.87 | 1009.23 ± 0.85 | 1006.69 ± 0.83 | 1.028 ± 0.012 | 0.9109 ± 0.011 | 0.8208 ± 0.0096
m1 = 0.2984 | 1013.59 ± 0.89 | 1011.55 ± 0.87 | 1008.84 ± 0.85 | 1.055 ± 0.012 | 0.9313 ± 0.011 | 0.8393 ± 0.0098
m1 = 0.3556 | 1016.55 ± 0.92 | 1014.41 ± 0.9 | 1011.59 ± 0.88 | 1.083 ± 0.013 | 0.9567 ± 0.011 | 0.8611 ± 0.01
m1 = 0.4028 | 1018.9 ± 0.95 | 1016.7 ± 0.93 | 1013.74 ± 0.9 | 1.107 ± 0.013 | 0.9774 ± 0.011 | 0.8786 ± 0.01
m1 = 0.4537 | 1021.44 ± 0.98 | 1019.25 ± 0.96 | 1016.36 ± 0.93 | 1.133 ± 0.013 | 1.002 ± 0.012 | 0.8972 ± 0.01
m1 = 0.5093 | 1024.16 ± 1 | 1022.14 ± 0.99 | 1019.21 ± 0.96 | 1.16 ± 0.013 | 1.025 ± 0.012 | 0.9174 ± 0.011
m1 = 0.6018 | 1028.61 ± 1.1 | 1026.63 ± 1 | 1023.82 ± 1 | 1.204 ± 0.014 | 1.065 ± 0.012 | 0.9514 ± 0.011
m1 = 0.6492 | 1030.83 ± 1.1 | 1028.91 ± 1.1 | 1026.28 ± 1 | 1.226 ± 0.014 | 1.085 ± 0.013 | 0.9692 ± 0.011
m1 = 0.7511 | 1035.5 ± 1.1 | 1033.54 ± 1.1 | 1030.78 ± 1.1 | 1.277 ± 0.015 | 1.13 ± 0.013 | 1.009 ± 0.012
m1 = 0.8129 | 1038.24 ± 1.2 | 1036.23 ± 1.1 | 1033.29 ± 1.1 | 1.309 ± 0.015 | 1.158 ± 0.014 | 1.034 ± 0.012
m1 = 0.871 | 1040.72 ± 1.2 | 1038.49 ± 1.2 | 1035.54 ± 1.1 | 1.341 ± 0.016 | 1.185 ± 0.014 | 1.059 ± 0.012
m1 = 0.9001 | 1042.02 ± 1.2 | 1039.67 ± 1.2 | 1036.66 ± 1.1 | 1.358 ± 0.016 | 1.198 ± 0.014 | 1.072 ± 0.013
m1 = 1.019 | 1047.01 ± 1.2 | 1044.27 ± 1.2 | 1041.12 ± 1.2 | 1.423 ± 0.017 | 1.257 ± 0.015 | 1.127 ± 0.013
m1 = 1.199 | 1054.33 ± 1.3 | 1052.06 ± 1.3 | 1049.61 ± 1.3 | 1.54 ± 0.018 | 1.358 ± 0.016 | 1.219 ± 0.014

Source: the NIST ThermoML archive (doi:10.1021/je4002009)
